From PMC9563075, “Identification and Structure–Activity Relationship of Recovered Phenolics with Antioxidant and Antihyperglycemic Potential from Sugarcane Molasses Vinasse” (Foods, 2022)
Values joined by “and” are separate entries in the source; they are usually repeats but may differ in a detail not shown here. Equal entries are not always repeated.

Experiments:
[1] = Oxygen radical scavenging capacity (ORAC) assay; details: for ORAC value: Trolox equivalents per 1 g of compound, mean ± SD, n = 3; for decrease of ORAC antioxidant activity relative to 4-hydroxybenzoic acid: additional methoxy group(s) in ortho-positions of the p-OH
Method: The antioxidant activity of compounds was measured using the ORAC assay according to a previous method. Briefly, 150 μL 8.16 × 10^−5 mM fluorescein working solution was added to the inner wells of a 96-well microplate. Then the plate was incubated at 37 °C for 10 min, after which another 25 μL diluted antioxidants were added using Trolox as standard and 75 mM buffer solution as blank. The plate was shaken every 3 min during the incubation. […] All samples were analyzed in triplicate at three different dilutions. ORAC values were expressed as mean micromoles of Trolox equivalents (TE) per 1 g of the compound.

[2] = molecular target: α-glucosidase (EC3.2.1.20); assay: α-Glucosidase inhibition assay; type: biochemical; details: mean ± SD; samples in 30% (v/v) ethanol-PBS
Method: The inhibition assay with the α-glucosidase was carried out as a previously described protocol. […] The incubated system contained 50 μL of samples and 100 μL of the α-glucosidase solution was added to a 96-well plate at 37 °C for 10 min. Then, 50 μL of the substrate pNP-α-G was added to start the reaction at 37 °C. After 10 min, 100 μL of 1 M Na2CO3 solution was added to inactivate α-glucosidase and halt the generation of substrates, and the absorbance was read at 405 nm with the micro-plate reader (SpectraMax 190, Molecular Devices Co., Sunnyvale, CA, USA). The percentage of inhibition and the values of IC50 of samples were calculated by the same equation as α-amylase inhibition assay.

α-amylase (EC3.2.1.1) = assay: α-Amylase inhibition assay; type: biochemical; details: for IC50: mean ± SD, samples in 30% (v/v) ethanol-PBS
Method: The inhibition assay with the α-amylase was performed as a previously reported protocol with a slight modification. […] Then, 1 U mL^−1 α-amylase (EC3.2.1.1), soluble starch solution (1%, w/v) and 3,5-dinitrosalicylic acid (DNS) were all dissolved in PBS (50 mM, pH 6.9). The mixed system contained a 500 μL sample or blank solution and 500 μL α-amylase incubated at 37 °C for 10 min, followed by the addition of 500 μL of preheated starch solution into the mixed incubated system to initiate the enzymatic hydrolysis reaction (37 °C, 10 min). Finally, 1 mL of DNS was added to halt the reaction, and the mixture was then allowed to sit in boiling water for 5 min. The absorbance was measured at 540 nm using a microplate reader (SpectraMax 190, Molecular Devices Co., Sunnyvale, CA, USA) at room temperature. The inhibition rate of the samples was calculated using the following equation: Inhibition rate (%)=[1−(Asample−Asample blank)/(Acontrol−Acontrol blank)]×100 where Asample, Asample blank, Acontrol, Acontrol blank represent the absorbance of the presence and absence of enzymes in sample solutions, and the absorbance of the presence and absence of enzymes in buffer solutions. The half-maximal inhibitory concentration (IC50) of each compound was obtained by regression analysis.

[3] = Dissolution in 30% (v/v) ethanol-water solvent system; type: physicochemical; details: high-concentration
HepG2 cells = assay: Cellular antioxidant activity (CAA) assay; type: cell-based; details: for CAA value: converted from EC50, quercetin equivalents; for EC50: Homo sapiens, HepG2, HepG2 cells
Method: HepG2 cells (ATCC Co., Manassas, VA, USA) were incubated in DMEM with 1% penicillin-streptomycin and 10% FBS and maintained at 37 °C with 5% CO2. The modified methylene blue assay was used to determine cytotoxicity.
The CAA assay was performed, according to Wolfe et al., with slight modification. In brief, 6 × 10^4 HepG2 cells were placed in each well of a black-walled 96-microwell plate. 200 μL of PBS was added to the edge of the plate to prevent the edge effect. After adherence, cells were treated with a range of concentrations of benzoic acid derivatives and a standard (quercetin) containing 50 μM DCFH-DA for 1 h under the same culture condition. After removing the supernatant medium, the cells were washed with or without PBS. Then promptly added 600 μM ABAP into each well except blank groups before reading at 485 nm excitation and 538 nm emission using a multifunctional microplate detector (Molecular Devices, Sunnyvale, CA, USA). The fluorescence values were recorded every 5 min for 1 h. The CAA values were obtained by converting the EC50 values and presented as μmol quercetin equivalents (QE)/100 μmol.

Structure (SMILES)	ORAC value [1] [μmol TE/g]	IC50 [2] [mM]	IC50 (α-amylase (EC3.2.1.1)) [mM]	further results
COc1cc(C(=O)Cl)c(O)c(O)c1O [Compound 1, 2,3,4-trihydroxy-5-methoxy benzoyl chloride]	4094.6 ± 32.1			
COc1ccc(O)c(C(=O)O)c1 [Compound 2, 2-hydroxy-5-methoxybenzoic acid]	32648.1 ± 2181.8	26.1 ± 0.67	40.5 ± 0.44	
CC(=O)SC(C)=O [Compound 3, acetyl sulfide]	1.3 ± 0.2			
O=C(O)c1cc(O)ccc1O [Compound 4, gentisic acid]	23113.1 ± 1057.9	30.5 ± 1.02	36 ± 2.23	
COc1ccc(C(=O)O)cc1O [Compound 5, 3-hydroxy-4-methoxybenzoic acid]	20705.9 ± 835.9			solubility in 30% (v/v) ethanol-water system [3]: cannot be dissolved
O=C(O)c1ccc(O)cc1 [Compound 7, 4-hydroxybenzoic acid]	14874.9 ± 599.2	34.1 ± 1.51	> 100	α-amylase inhibition (in words) (α-amylase (EC3.2.1.1)): did not show any inhibition effect
COc1cc(C(=O)O)ccc1O [Compound 8, vanillic acid]	12945.8 ± 1419.3	29.7 ± 0.33	> 100	cellular uptake rate (CAA value of the PBS wash/no PBS wash × 100%) (HepG2 cells; HepG2 cells): 71.53%; CAA value (HepG2 cells; HepG2 cells, PBS wash protocol): 6.18 μmol QE/100 μmol and 6.18 ± 0.09 μmol QE/100 μmol; CAA value (HepG2 cells; HepG2 cells, no PBS wash protocol): 8.64 μmol QE/100 μmol and 8.64 ± 0.53 μmol QE/100 μmol; EC50 (HepG2 cells; PBS wash protocol): 0.21 ± 0.00322 mM; EC50 (HepG2 cells; no PBS wash protocol): 0.0591 ± 0.00374 mM; decrease of ORAC antioxidant activity relative to 4-hydroxybenzoic acid [1]: 1.15 folds
Cc1cncc(CC(O)C(O)CO)n1 (stereo not shown) [Compound 9, 2-methyl-6-(2′,3′,4′-trihydroxybutyl)-pyrazine]	78.0 ± 2.9			
COc1cc(OC2OC(CO)C(O)C(O)C2O)cc(O)c1OC [Compound 10, 3-hydroxy-4,5-dimethoxyphenyl-β-D-glucopyranoside]	4177.5 ± 324.2			
COc1ccc(OC2OC(CO)C(O)C(O)C2O)cc1OC [Compound 11, 3,4-dimethoxyphenyl-O-β-D-glucopyranoside]	56.5 ± 2.8			
COc1cc(OC)c(OC2OC(CO)C(O)C(O)C2O)c(OC)c1 [Compound 12, 2,4,6-trimethoxyphenyl-1-O-β-D-glucopyranoside]	80.2 ± 2.3			
COc1cc(C(=O)O)cc(OC)c1O [Compound 13, syringic acid]	1879.9 ± 44.7	20.3 ± 0.39	> 100	decrease of ORAC antioxidant activity relative to 4-hydroxybenzoic acid [1]: 7.91 folds
COc1ccc(OC)cc1 [Compound 14, 1,4-dimethoxybenzene]	2154.2 ± 183.1			
O=c1c(O)c(-c2ccc(O)c(O)c2)oc2cc(O)cc(O)c12 [Quercetin, quercetin, reference compound]				EC50 (HepG2 cells; PBS wash protocol): 0.013 mM; EC50 (HepG2 cells; no PBS wash protocol): 0.00509 mM
